{
  "source": "paper PMC6694155",
  "about": "“PTPσ inhibitors promote hematopoietic stem cell regeneration” (Nature Communications, 2019)",
  "key": {"[1]": {"tested_on": "DsRed+ BM sca-1+lin− cells in irradiated C57BL/6 mice", "assay": "Homing study", "type": "in vivo, mouse", "method": "Sorted BM sca-1^+lin^− cells (100,000) from DsRed^+ mice were transplanted into lethally irradiated (950 cGy) recipient C57BL/6 mice followed by subcutaneous treatment of 5 mg/kg DJ001 or vehicle × 1 dose. At 18 h post transplantation, BM cells were collected from the recipient mice and were analyzed for percentages of DsRed^+ cells in the BM[17]."}, "p-PAK1 in BM KSL cells": {"tested_on": "p-PAK1 in BM KSL cells", "assay": "p-PAK1 phospho-flow cytometry of BM KSL cells", "type": "cell-based, mouse", "method": "Intracellular flow cytometric analysis was performed on irradiated (300 cGy) or non-irradiated, sorted KSL cells after treatment with 1 μg/mL DJ001 or control (equal volumes of DMSO) for 24 h. At 24 h after irradiation, cells were fixed with 4% PFA for 10 min, followed by permeabilization using 0.25% saponin in PBS. Cells were washed again and stained with antibody at the recommended concentrations for 30 min at RT. Intracellular antibodies and phospho-flow antibodies used were as follows: FITC-conjugated anti-BCL-XL (Abcam, #26148, 1:100), active RAC1-GTP antibody (NewEast Biosciences, #26903, 1:100) and anti-PAK1 (phospho S144) + PAK2 (phospho S141) + PAK3 (phospho S154) antibody (Abcam, #40795, 1:100), and FITC-conjugated goat anti-rabbit IgG H&L (Abcam, #97050, 1:200)."}, "human BM CD34+ cells": {"tested_on": "human BM CD34+ cells", "assay": "Recovery of CD34+CD38− cells from 300 cGy-irradiated human BM CD34+ cells", "type": "cell-based", "details": "36 h, 5 µg/mL DJ001"}, "[2]": {"tested_on": "RHOA-GTP in BM lin− cells", "assay": "G-LISA activation assay: RHOA-GTP", "type": "cell-based, mouse", "details": "for RHOA-GTP level (G-LISA): Supplementary Figure 7b (left panel)", "method": "The RAC1-GTP, RHOA-GTP, and CDC42-GTP activation levels in BM lin^− cells were measured using a colorimetric-based RAC1-, RHOA-, and CDC42 G-LISA Activation Assay Kit (Cytoskeleton, Inc.). BM cells from femurs and tibias were isolated from 12-week-old Ptprs^+/+ and Ptprs^−/− mice. Cells were then depleted of lineage-committed cells with Direct Lineage Cell Depletion Kit (Miltenyi Biotec, #130-110-470; 1:5). The BM lin^− cell fraction was then serum starved in Iscove’s modified Dulbecco’s medium (IMDM) and treated with either vehicle (equal amount of DMSO) or 1 μg/mL DJ001 for 10 min at 37 °C. After treatment, cells were washed with ice-cold PBS and then placed in lysis buffer supplemented with protease inhibitor. Lysate concentrations were measured by Pierce^TM BCA Protein Assay Kit (ThermoFisher Scientific). G-LISA was performed according to the manufacturer’s instructions. Briefly, 12.5 μg of lysates was added to a GTP-binding protein pre-coated plate and active RAC1-GTP, RHOA-GTP, or CDC42-GTP levels were measured at 490 nm using a PowerWave XS2 microplate reader (BioTek)."}, "[3]": {"molecular_target": "T1, TMDP (Dual Specificity Phosphatase 13) (Homo sapiens, UniProt Q9UII6)", "T1 construct": "purchased Eurofins Pharma Discovery Services UK", "T1 sequence (Q9UII6 whole entry, species assumed)": "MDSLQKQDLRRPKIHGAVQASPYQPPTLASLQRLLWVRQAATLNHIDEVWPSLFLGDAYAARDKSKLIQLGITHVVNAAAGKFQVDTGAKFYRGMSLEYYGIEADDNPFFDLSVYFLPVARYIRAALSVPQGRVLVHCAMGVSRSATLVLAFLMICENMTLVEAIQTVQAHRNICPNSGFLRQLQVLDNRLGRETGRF", "assay": "PhosphataseProfiler screen: TMDP", "type": "biochemical", "details": "replicates", "method": "Compound DJ001 was evaluated in a PhosphataseProfiler™ screen at 10 μM and 1 μM (2.7 μg/mL and 0.27 μg/mL) concentrations at Eurofins Pharma Discovery Services UK (Study number UK022-0004033) against a panel of 21 Phosphatases. In each experiment, the respective reference antagonist/agonist was tested directly with DJ001 and the data were compared with historical values determined at Eurofins. DJ001 compound inhibition was calculated as percentage inhibition of the enzymatic activity compared with control."}},
  "note": "“And” between values parts separate entries of the source, which are not always exact repeats. Equal entries are not always repeated.",
  "data": [
    {"smiles": "O=C(/C=C\\Nc1cccc([N+](=O)[O-])c1)c1ccccc1", "note": "[DJ001, (Z)-3-((3-nitrophenyl)amino)-1-phenylprop-2-en-1-one]", "values": [
      {"measurement": "homing of transplanted BM sca-1+lin− cells", "setting": "[1]; 18 h, irradiated C57BL/6 mice", "result": "no effect on homing"},
      {"measurement": "percentage of donor DsRed+ cells in the BM, per mouse (Supplementary Figure 8b)", "setting": "[1]; 18 hours, 5 mg/kg DJ001 subcutaneously, 5 mg/kg", "result": "0.19% and 0.183% and 0.207%"},
      {"measurement": "phosphorylation of PAK1", "setting": "p-PAK1 in BM KSL cells; BM KSL cells, 1 μg/mL DJ001", "result": "increased phosphorylation"},
      {"measurement": "Figure 3d: p-PAK1 in BM KSL cells", "setting": "p-PAK1 in BM KSL cells; individual replicates", "result": "50.24 and 54.07 and 49.55 and 58.02 and 54.95"},
      {"measurement": "recovery of viable human BM CD34+CD38− cells following irradiation", "setting": "human BM CD34+ cells", "result": "increased the recovery"},
      {"measurement": "activation of RhoA", "setting": "[2]; BM lin− cells, 1 μg/mL DJ001, 10 min", "result": "did not alter the activation"},
      {"measurement": "RHOA-GTP level (G-LISA)", "setting": "[2]; Ptprs+/+ cells", "result": "0.1099 and 0.0821 and 0.1369"},
      {"measurement": "RHOA-GTP level (G-LISA)", "setting": "[2]; Ptprs-/- cells", "result": "0.1117 and 0.0668 and 0.0845"},
      {"measurement": "Supplementary Figure 1: TMDP activity", "setting": "[3]; 2.7 μg/mL DJ001", "result": 101},
      {"measurement": "Supplementary Figure 1: TMDP activity", "setting": "[3]; 0.27 g/mL DJ001", "result": "108 and 103 (2×)"}
    ]}
  ]
}
